Measured values: patent US6949575B2, “Method of inhibiting amyloid protein aggregation and imaging amyloid deposits using aminoindane derivatives” (Pfizer Inc., priority 2000, dated 2005)
Values joined by “and” are separate entries in the source; they are usually repeats but may differ in a detail not shown here. Equal values may be shown once.

What was measured:
[1] = molecular target: T1, Aβ (1-42) (Homo sapiens, UniProt P05067); experiment: Batym Assay: Aβ (1-42) aggregation, Thioflavin T fluorescence; assay type: biochemical; settings: Aβ1-42 final 100 μM, 37° C., 1 day, read-out: BAYTM IC50
T1 construct: Required Aβ (1-42) (California Peptide); purchased California Peptide
T1 sequence (P05067 672-713 limits assumed): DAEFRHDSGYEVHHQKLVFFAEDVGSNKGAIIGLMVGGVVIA
Description: Required Aβ (1-42) (California Peptide) was dried from its HFIP stock solution. The Aβ (1-42) was dissolved in DMSO and then mixed with phosphate buffered saline (PBS) (pH 7.4). The mixed Aβ (1-42) solution was filtered with a Omnipore membrane 0.2-μm syringe filter (Millipore, Bedford, Mass.). The compound to be tested in DMSO (50× concentrate) was put into each well (0.5 μL/well) of a 96-well plate. The Aβ (1-42) solution was added into each well (24.5 μL/well). The plate was centrifuged at 1,000 g for 5 minutes and incubated at 37° C. for 1 day (Aβ1-42; final concentration 100 μM).
After incubation, Thioflavin T (ThT) (30 μM) solution in glycine-NaOH buffer (pH 8.5, 50 mM) was added into each well (250 μL/well), fluorescence was measured (ex=440/20 nm; em=485/20 nm) using a fluorescence plate reader. The inhibitory activity was calculated as the reduction of fluorescence with the following formula: Inhibition (%)={(F(Aβ)−F(Aβ+compound)}/{F(Aβ)−[…]}×100
The IC50s were calculated by a curve fitting program using the following equation. The data were obtained from two different experiments in triplicate. Inhibition (x)=100−100/{1+(x/IC50)^n}. • x=concentration of tested compound (M). • IC50=(M). • n=Hill coefficient.

[2] = molecular target: T2, Soluble Aβ(1-40) (Homo sapiens, UniProt P05067); experiment: BASST (Beta-Amyloid Self-Seeding, Thioflavin T): inhibitors of self-seeded amyloid fibril growth; assay type: biochemical; settings: 30 μM soluble Aβ(1-40), 37° C., 3 to 5 hours, thioflavin T fluorescence
T2 construct: Soluble Aβ(1-40)—2.2 mg/mL in deionized H2O
T2 sequence (P05067 672-711 limits assumed): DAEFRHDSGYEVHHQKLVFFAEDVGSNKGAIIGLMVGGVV
Description: • 1) Prepare reaction mixture above by mixing components and storing on ice. • 2) Pipet 14.5 μL of reaction mixture into each of 50 wells on a polypropylene U-bottom 96-well microtiter plate on ice (Costar 3794). • 3) Add 1.7 μL of diluted compound to be tested to each well in a column of eight, including solvent control. Serial 3-fold dilutions from 1 mM (100 μM final) in assay buffer-urea=7 dilutions+zero. Each 96-well plate can therefore accommodate 11 samples+1 Congo Red control (0.039-5 μM final in 2-fold steps). • 4) Seal the plate with aluminum film (Beckman 538619) and incubate for 10 minutes on ice. • 5) Raise the temperature to 37° C. and incubate for 3 to 5 hours (depending on the lot of the peptide). • 6) Remove the aluminum film and add 200 μL/well of ice cold assay buffer with urea, collecting the radiolabeled fibrils by vacuum filtration through 0.2-μm pore size GVWP filters in 96-well plates (Millipore MAGV […], Bedford, Mass.). Determine the radioactivity of the filters using standard methods well-known to those skilled in the art. BASST (Beta-Amyloid Self-Seeding, Thioflavin T) An assay for inhibitors of self-seeded amyloid fibril growth Methods: Materials: Stock Solutions: Assay Buffer-50 mM sodium phosphate, pH 7.5, 100 mM NaCl, 0.02% NaN3, 1 M urea (filter and store at 4° C.) Soluble Aβ(1-40)-2.2 mg/mL in deionized H2O (store in aliquots at -20° C., keep on ice when thawed) will self-seed after 1 week storage. Typically, the solution should be stored until no lag phase is seen in the assay. Final assay conditions: 30 μM soluble Aβ(1-40) in deionized water in assay buffer. Compound to be tested is dissolved in DMSO, typically 5 to 50 mM stock, such that the final concentration of DMSO is <1% v/v in the assay. Assay: Reaction mixture for 50 assays (on ice) comprised of 1 μL of soluble Aβ(1-40)+13.5 μL assay buffer per assay. The following are the amounts of the components of the reaction mixture that result in each of the 50 assay wells. 50 μL soluble Aβ(1-40) 675 μL assay buffer Assay Method • 1) Prepare the reaction mix above by mixing the components and storing on ice. • 2) Pipet 14.5 μL of reaction mixture into each of 50 wells of a polystyrene U-bottom 96-well microtiter plate (Coming 25881-96) on ice. • 3) Add 1.7 μL of diluted compound to be tested to each well in a column of eight, including solvent control. Serial 3-fold dilutions from 1 mM (100 μM final) in assay buffer-urea=7 dilutions+zero. Each 96-well plate can therefore accommodate 11 samples+1 Congo Red control (0.039-5 μM final in 2-fold steps). • 4) Seal the plate with aluminum film and incubate for 10 minutes on ice. • 5) Raise the temperature to 37° C. and incubate for 3 to 5 hours (depends on the lot of the peptide). • 6) Remove the aluminum film and add 250 μL/well of 5 μM thioflavin T (ThT) [T-3516, Sigma-Aldrich] in 50 mM glycine-NaOH, pH 8.5. Read fluorescence on a plate reader (ex=440 nm/20 nm; em=485 nm/20 nm) within 5 minutes. BAPA (Beta-Amyloid Peptide Aggregation)

Compound | IC50 [1] [µM] | IC50 [2]
COc1ccc(Nc2ccc3c(c2)CC(NCc2ccc(Cl)c(Cl)c2)C3)c(C(=O)O)c1 (stereo not drawn) [Example 5, 2-[2-(3,4-Dichlorobenzylamino)-indan-5-ylamino]-5-methoxy-benzoic acid] | > 100 | 30 µM
O=C(O)c1cc([N+](=O)[O-])ccc1Nc1ccc2c(c1)CC(NCc1ccc(F)cc1)C2 (stereo not drawn) [Example 10, 2-[2-(4-Fluorobenzylamino)-indan-5-ylamino]-5-nitro-benzoic acid] | 53.8 | 30 µM
CCCCCN(CCCCC)C1Cc2ccc(Nc3ccc([N+](=O)[O-])cc3C(=O)O)cc2C1 (stereo not drawn) [Example 1, 2-[(2-N,N-di-n-pentylamino)-indan-5-yl]amino-5-nitro-benzoic Acid] | > 100 | 40 µM
CCCCCN(CCCCC)C1Cc2ccc(Nc3ccc(C)cc3C(=O)O)cc2C1 (stereo not drawn) [Example 6, 2-(2-Dipentylamino-indan-5-yl-amino)-5-methyl-benzoic acid] | > 100 | 21 µM and > 100 µM
CCCCCN(CCCCC)C1Cc2ccc(Nc3ccc(C(=O)O)cc3[N+](=O)[O-])cc2C1 (stereo not drawn) [Example 7, 4-(2-Dipentylamino-indan-5-yl-amino)-3-nitro-benzoic Acid] | > 100 | 8 µM
CCCCCNC1Cc2ccc(Nc3ccc([N+](=O)[O-])cc3C(=O)O)cc2C1 (stereo not drawn) [Example 12, 2-[2-(n-Pentylamino)-indan-5-ylamino]-5-nitro-benzoic acid] | > 100 | > 100 µM
